Assay results published in patent US11576981B2, “Acyl hydrazone linkers, methods and uses thereof” (Ontario Institute for Cancer Research (OICR), priority 2017, dated 2023).
One block for each compound: values may come before it.

Columns and labels:
[1] = Half-life of model acyl hydrazones in a simulated lysosomal environment (pH 4.5); assay type: physicochemical; conditions: read-out: Acidic (pH 4.5) Half life
Text: Towards the goal developing enhanced control of ADC linker stability, several model cyclic acyl hydrazones whose lability is modulated either by steric or stereoelectronic effects have been prepared. Exemplary acyl hydrazones containing a substituted phenyl group adjacent to the imine carbon have been synthesized. Starting with the acyl hydrazone structure (D) present in Mylotarg, the adjacent steric and electronic environments in model linker compounds were varied and their half-life tested in a simulated lysosomal environment (pH 4.5), as shown in Table 1. […] On the other hand, incorporation of a methoxy group in the same position (as in G) rendered the cyclic hydrazone very labile with a half-life of only 2 min.

[2] = Stability of acyl hydrazones on incubation in human plasma; assay type: in vitro ADME; conditions: 6 days incubation in human plasma; remaining parent acyl hydrazone
Method: In addition, for an ADC to have a better therapeutic window, ideally it should be stable in plasma and having the payload released only upon entry to the target cells. Thus targeted cytotoxicity would be mostly confined to the diseased cells of interest. Starting with the acyl hydrazone structure (D) present in Mylotarg, the adjacent steric and electronic environments were varied in model linker compounds and their stability was tested in plasma.

[3] = system: SKOV3 ovarian cancer cell line; assay: Cytotoxicity against SKOV3 (CellTiter-Glo ATP viability); assay type: cell-based; conditions: ATP content
Method: SKOV3 ovarian cells are incubated with the effectors for a period corresponding to 2 to 3 times their estimated doubling time and the amount of viable cells is determine by measuring ATP content in the wells. […] All ADCs are diluted in DPBS to 6× the highest concentration tested, followed by 10 3-fold serial dilutions in DPBS for a total of 11 concentration points. Each point is added to triplicate wells. DPBS is added in wells to measure the maximum growth. Cells are diluted at their appropriate seeding density (ranging from 150 to 1000 cells per well) in complete media supplemented with glutamine 2 mM, serum and antibiotic cocktail. They are distributed in white, opaque bottom, tissue-culture treated 384 well plates and incubated for 24 hrs at 37° C.+5% CO2. […] Total ATP is measured using CellTiter-Glo reagent from Promega as recommended by the supplier. […] Signal output is measured on a luminescence plate reader (envision, Perkin Elmer) set at an integration time of 0.1 sec. […]
Each concentration point (S) is normalized to the negative control wells (NC) and expressed as % survival (NC−S/NC×100). Potency (IC50) and efficacy are calculated from a non-linear curve fit of the points versus log of the concentrations without constrain on the slope. Refined data are analysed using Prism software.

[4] = system: glioblastoma EGFR^+ U87 cell lines (U87MG engineered to overexpress wt EGFR); assay: Cell proliferation assay (SRB), EGFR^+ U87 cells; assay type: cell-based; conditions: Homo sapiens, U-87 MG, 72 h
Method: (§1) The parental U87MG glioblastoma human tumor cell line (ATCC) and the corresponding cell line engineered to overexpress wt EGFR (EGFR^+ U87) (˜2M receptors per cell) were grown in DMEM medium containing 10% fetal bovine serum and 2 mM L-glutamine. Cells were inoculated into 96 well microtiter plates in 100 μL at a plating density of 4000 cells/well After cell inoculation, the microtiter plates were incubated at 37° C., 5% CO2, 95% air and 100% relative humidity. After 24 h incubation, experimental drugs were diluted to 10× the desired final maximum test concentration with complete medium and additional 10-fold or ½ log serial dilutions were made to provide a total of 6 drug concentrations plus control. Aliquots of 10 μl of these different drug dilutions were added to the appropriate microtiter wells already containing 100 μl of medium, resulting in the required final drug concentrations.
(§2) Following drug addition, the plates were incubated for an additional 72 h at 37° C., 5% CO2, 95% air, and 100% relative humidity. […] Bound stain was subsequently solubilized with 10 mM trizma base, and the absorbance was read on an automated plate reader at a wavelength of 515 nm. The growth was calculated at each of the drug concentrations levels relative to untreated cells (media only control).
(§3) Percentage growth inhibition was calculated as: [(Ti)/(C)]×100 […]

[5] = system: parental U87MG glioblastoma human tumor cell line; assay: Cell proliferation assay (SRB), U87 parental cells; assay type: cell-based; conditions: U-87 MG, 72 h
Method: as §1, §2, §3

Compound: CC(C)(S)CC(=O)N/N=C1\CCCc2cc(OCCCC(=O)O)ccc21 [Compound Ie, 4-((5-(2-(3-Mercapto-3-methylbutanoyl)hydrazineylidene)-5,6,7,8-tetrahydronaphthalen-2-yl)oxy)butanoic acid]
half-life [1]: 31 min

Compound: C/C(=N\NC(=O)CC(C)(C)S)c1ccc(OCCCC(=O)O)cc1 [Compound Ia, 4-(4-(1-(2-(3-Mercaptomethylbutanoyl) hydrazineylidene)ethyl)phenoxy) butanoic acid]
half-life [1]: 15 min

Compound: Synagis-SMCC-DM1: negative control ADC
IC50 [3]: 9.64 nM

Compound: CC(C)(S)CC(=O)NN=C1CCCc2cc(OCCCC(=O)O)cc(O)c21 [Compound Ib, 4-((4-Hydroxy-5-(2-(3-mercapto-3-methylbutanoyl)hydrazono)-5,6,7,8-tetrahydronaphthalen-2-yl)oxy)butanoic acid]
half-life [1]: 234 min

Compound: COc1cc2cc(c1Cl)N(C)C(=O)C[C@H](OC(=O)[C@H](C)N(C)C(=O)CCS)[C@]1(C)O[C@H]1[C@H](C)[C@@H]1C[C@@](O)(NC(=O)O1)[C@H](OC)/C=C/C=C(\C)C2 [DM1]
IC50 [4]: 10.3 nM
IC50 [5]: 12.3 nM

The remaining lines, values ahead:

half-life [1]: 2 min
Compound: COc1cc(O)cc2c1/C(=N/NC(C)=O)CCC2 [G]

% remaining after 6 days [2]: 50%
half-life [1]: 185 min
Compound: CC(=O)N/N=C1\CCc2cccc(O)c21 [L]

% remaining after 6 days [2]: 37%
half-life [1]: 15 min
Compound: COc1ccc(/C(C)=N/NC(C)=O)cc1 [D]

half-life [1]: 88 min
Compound: CC(=O)N/N=C1\CCCc2ccc(F)cc21 [K]
